The record followed here is patent US8546357B2, “Boron-containing small molecules for controlling ectoparasites” (priority 2011, dated 2013).

Series [1] is described as follows: Tolerability of oral treatment in dogs. The series is classed as in vivo, dog. The protocol:
(§1) The therapeutic (knockdown) and residual efficacy of 5, administered orally at a point dose of 25 mg/kg bodyweight, was evaluated against adult American dog tick (D. variabilis) infestations on dogs. Six beagle dogs were allocated to one of two treatment groups, an untreated control group (n=4 dogs) or 5 group (n=2 dogs). On Day 0, two dogs were treated with 5 via oral gavage (25 mg/ml 5, dissolved in a solution of 55% polyethylene glycol-300, 35% propylene glycol and 10% water) at a point dose of approximately 25 mg/kg. Twenty-four (24) hours before treatment (Day −1), all dogs were infested with approximately 50 unfed, adult-stage American dog ticks (D. variabilis; approximately 50% male and 50% female). On Day 1, approximately 24 hours after treatment, thumb counts were conducted to determine the number and life-status classification of ticks present on all dogs (normal, moribund or dead; attached or detached). Ticks were not removed during thumb counts. On Day 2, approximately 48 hours after treatment, all ticks were classified and removed from dogs. Dogs were re-infested with approximately 50 unfed, adult D. variabilis ticks on Days 5 and 12, with tick classification, counts and removal on Days 7 and 14 (approximately 48 hours after each infestation).
(§2) The therapeutic (knockdown) and residual efficacy of 7 and 8, each administered orally at a point dose of 25 mg/kg bodyweight, was evaluated against adult tick (Dermacentor variabilis and Rhipicephalus sanguineus) and adult cat flea (Ctenocephalides felis) infestations on dogs. Twelve (12) male and female beagle dogs were randomly allocated to one of three treatment groups, four (4) dogs per group: Untreated control; 7, 25 mg/kg; and 8, 25 mg/kg. On Day −1, all dogs were infested with approximately 50 unfed, adult D. variabilis ticks. On Day 0, dogs were orally administered gelatin capsules containing either 7 or 8 (50% technical active, 47% microcrystalline cellulose and 3% croscarmellose sodium, w/w). Ticks were counted and classified, but not removed, on all dogs on Day 1, approximately 24 hours after treatment. On Day 2, approximately 48 hours after treatment, ticks were counted, classified and removed. Dogs were re-infested with the same number of D. variabilis ticks on Days 5, 12, 19 and 28 and tick counts were conducted on Days 7, 14, 21 and 30.
The therapeutic (knockdown) and residual efficacy of 7, administered orally at a point dose of 35 mg/kg bodyweight, was evaluated against adult tick (Dermacentor variabilis and Rhipicephalus sanguineus) and adult cat flea (Ctenocephalides felis) infestations on dogs. Twelve (12) male and female beagle dogs were allocated to either an untreated, negative control group or 7 group (n=6 dogs per group). Dogs were infested with approximately 50 unfed, adult D. variabilis ticks on Days −1, 5, 12, 19, 28, 35 and 42. On Day 0, dogs were orally administered gelatin capsules containing Compound 8194 (50% technical active, 47% microcrystalline cellulose and 3% croscarmellose sodium, w/w) at a point dose of 35 mg/kg. […] GM percent efficacy of treatments against both tick species and fleas was calculated using the following formula: […]
The therapeutic efficacy and speed of kill of 7, administered orally at a point dose of 20 mg/kg bodyweight, was evaluated against adult cat flea (Ctenocephalides felis) infestations on dogs. […]

Series [2] has as its system Lone star tick larvae (Amblyomma americanum). Briefly: Larval immersion microassay against larval-stage Lone star ticks. The note with it: Amblyomma americanum, 24 h, read-out: activity (percent larval mortality). On the procedure: The larval immersion microassay was conducted as described in detail in White, et al., J. Med. Entomol. 41: 1034-1042 (2004). Compounds of the invention were formulated in dimethylsulfoxide (DMSO) to prepare a stock solution at a concentration of at least 10 mM. Using 96-well microtiter plates, an aliquot of the mM sample was subsequently diluted in a water-based solution containing 1% ethanol and 0.2% Triton X-100, to obtain the desired concentration (typically 0.3 mM or lower) of compound in a volume of 0.1 ml (minimum n=3 replicates per compound or concentration). Approximately 30-50 Lone star tick larvae (Amblyomma americanum) were submerged into each well containing compounds. After a 30 minute immersion period, larvae were removed with a wide-bore pipette tip in 0.05 ml of fluid, dispensed into a commercial paper tissue biopsy bag which was sealed at the top with a plastic dialysis clip, inverted and allowed to air dry for 60 minutes. Bags containing larvae were then incubated at approximately 27 degrees Celsius and >90% relative humidity. After 24 hours, bags were opened, live and dead larvae were counted and percent larval mortality was calculated.
7 and 8 contain one chiral center each, and are racemic mixtures comprised of approximately 50% R- and 50% S-enantiomer. In vitro and surrogate animal (rat) studies were conducted to evaluate the biological activity of the R- and S-enantiomers of 7 and 8. For the in vitro study, larvae of the Lone star tick (Amblyomma americanum) were exposed to 9, 10, 11 and 12 using the larval immersion microassay at a concentration of no greater than 0.3 mM. Following exposure, larvae were removed, transferred to a tissue biopsy bag and incubated at approximately 27 degrees Celsius and >90% relative humidity. After 24 hours, biopsy bags were opened and the numbers of live and dead larvae were determined

For series [3], the system named is adult American dog tick (Dermacentor variabilis). Briefly: Therapeutic (knockdown) and residual efficacy against adult American dog tick infestations on dogs, oral. As to conditions: for therapeutic efficacy / Residual efficacy: oral gavage 25 mg/kg. The series is classed as in vivo. The protocol: as §1, §2
(§3) The therapeutic (knockdown) and residual efficacy of 7, administered orally at a point dose of 35 mg/kg bodyweight, was evaluated against adult tick (Dermacentor variabilis and Rhipicephalus sanguineus) and adult cat flea (Ctenocephalides felis) infestations on dogs. Twelve (12) male and female beagle dogs were allocated to either an untreated, negative control group or 7 group (n=6 dogs per group). Dogs were infested with approximately 50 unfed, adult D. variabilis ticks on Days −1, 5, 12, 19, 28, 35 and 42. On Day 0, dogs were orally administered gelatin capsules containing Compound 8194 (50% technical active, 47% microcrystalline cellulose and 3% croscarmellose sodium, w/w) at a point dose of 35 mg/kg. D. variabilis tick counts and classification were conducted on Day 1 (thumb count, approximately 24 hours after treatment) and Days 2, 7, 14, 21, 30, 37 and 44 (approximately 48 hours after treatment). Following removal of D. variabilis ticks on Day 30, all dogs were co-infested with approximately 50 unfed, adult brown dog ticks (R. sanguineus) and approximately 100 unfed, adult cat fleas (C. felis). Brown dog tick and cat flea counts were conducted on Day 32 (approximately 48 hours after infestation). GM percent efficacy of treatments against both tick species and fleas was calculated using the following formula: […]
The therapeutic (knockdown) and residual efficacy of S-enantiomer, 9, administered orally at a point dose of 25 mg/kg bodyweight, was evaluated against adult tick (Dermacentor variabilis and Rhipicephalus sanguineus) and adult cat flea (Ctenocephalides felis) infestations on dogs. […]

For series [4], the system named is cat flea (Ctenocephalides felis). Briefly: Residual efficacy against adult cat flea infestations on dogs, oral. The series is classed as in vivo. As to conditions: Day 32. The protocol:
(§4) Immediately following removal of D. variabilis ticks on Day 30, dogs were co-infested with approximately 50 adult, unfed brown dog ticks (R. sanguineus, approximately 50% male and 50% female) and approximately 100 adult, unfed cat fleas (C. felis, approximately 50% male and 50% female). Ticks and fleas were counted and removed on Day 32 (approximately 48 hours after infestation). GM percent efficacy of treatments against both tick species and fleas was calculated using the following formula: […]
as §3
(§5) The therapeutic (knockdown) and residual efficacy of S-enantiomer, 9, administered orally at a point dose of 25 mg/kg bodyweight, was evaluated against adult tick (Dermacentor variabilis and Rhipicephalus sanguineus) and adult cat flea (Ctenocephalides felis) infestations on dogs. Twelve (12) male and female beagle dogs were allocated to either an untreated, negative control group or 9 group (n=6 dogs per group). Dogs were infested with approximately 50 unfed, adult D. variabilis ticks on Days −1, 5, 12, 19, and 28. On Day 0, dogs were orally administered gelatin capsules containing 9 (50% technical active, 47% microcrystalline cellulose and 3% croscarmellose sodium, w/w) at a point dose of 25 mg/kg. D. variabilis tick counts and classification were conducted on Day 1 (thumb count, approximately 24 hours after treatment) and Days 2, 7, 14, 21 and 30 (approximately 48 hours after treatment). Following removal of D. variabilis ticks on Day 30, all dogs were co-infested with approximately 50 unfed, adult brown dog ticks (R. sanguineus) and approximately 100 unfed, adult cat fleas (C. felis). Brown dog tick and cat flea counts were conducted on Day 32 (approximately 48 hours after infestation). GM percent efficacy of treatments against both tick species and fleas was calculated using the following formula: […]

The test system of series [5] is brown dog tick (Rhipicephalus sanguineus). Briefly: Residual efficacy against adult brown dog tick infestations on dogs, oral. The series is classed as in vivo. The note with it: Day 32. The protocol: as §4, §3, §5
The mark [6] stands for this setting: Table 6, oral capsule 25 mg/kg, Day 2.
Where [7] appears, read: Table 6, oral capsule 25 mg/kg, Day 7.
Where [8] appears, read: Table 6, oral capsule 25 mg/kg, Day 14.
Setting [9] is: Table 6, oral capsule 25 mg/kg, Day 21.
[10] abbreviates: Table 7, oral capsule 25 mg/kg, Day 1.
[11] abbreviates: Table 7, oral capsule 25 mg/kg, Day 2.
Where [12] appears, read: Table 7, oral capsule 25 mg/kg, Day 7.
The mark [13] stands for this setting: Table 7, oral capsule 25 mg/kg, Day 14.
[14] abbreviates: Table 7, oral capsule 25 mg/kg, Day 21.
Where [15] appears, read: Table 7, oral capsule 25 mg/kg, Day 30.

Take `Cc1cc(C2=NOC(c3cc(Cl)cc(Cl)c3)(C(F)(F)F)C2)ccc1C(=O)NCc1ccc2c(c1)B(O)OC2(C)C` (stereo not drawn) [Compound 5, 4-(5-(3,5-Dichlorophenyl)-5-(trifluoromethyl)-4,5-dihydroisoxazol-3-yl)-N-((1-hydroxy-3,3-dimethyl-1,3-dihydrobenzo[c][1,2]oxaborol-6-yl)-methyl)-2-methyl benzamide]: the tolerability entry in series [1] (oral gavage 25 mg/kg) is “well tolerated”. Besides, the mortality at 300 µM in series [2] was not below 80%. The therapeutic efficacy in series [3] (24 hour post-treatment) and in series [3] (48 hour post-treatment) was 100% in each case. In addition, the Residual efficacy in series [3] (Day 7) is listed as 82.6%; in series [3] (Day 14), 82.7%.
Turning to `Cc1cc(C2=NO[C@@](c3cc(Cl)c(Cl)c(Cl)c3)(C(F)(F)F)C2)ccc1C(=O)NCc1ccc2c(c1)B(O)OC2(C)C` [Compound 9, (S)—N-((1-hydroxy-3,3-dimethyl-1,3-dihydrobenzo[c][1,2]oxaborol-6-yl)methyl)-2-methyl-4-(5-(3,4,5-trichlorophenyl)-5-(trifluoromethyl)-4,5-dihydroisoxazol-3-yl)benzamide], the “Geometric mean group live parasite counts” value in series [4] (Table 6, oral capsule 25 mg/kg) worked out at 0.9; in series [5] (Table 6, oral capsule 25 mg/kg), 0.5; in series [3] (Table 6, oral capsule 25 mg/kg, Day 1), 0.0; in series [3] (setting [6]), 0.0; in series [3] (setting [7]), 0.0; in series [3] (setting [8]), 0.0. The “Geometric mean group live parasite counts” value in series [3] (setting [9]) was 0.0; in series [3] (Table 6, oral capsule 25 mg/kg, Day 30), 1.1. Also, in series [1] (Example 10, oral capsule 25 mg/kg), the tolerability result is reported as “well tolerated”. In addition, the mortality at 300 µM in series [2] is not below 80%. For the same compound, the continued residual efficacy in series [3] (Example 10, oral capsule 25 mg/kg, through Day 21) amounted to 100%. For the same compound, the “% efficacy” value in series [3] (setting [6]), in series [3] (setting [7]), in series [3] (setting [8]) and in series [3] (setting [9]) was “(100) %” each time.
Turning to `Cc1cc(C2=NO[C@@](c3cc(Cl)c(F)c(Cl)c3)(C(F)(F)F)C2)ccc1C(=O)NCc1ccc2c(c1)B(O)OC2(C)C` [Compound 11, (S)-4-(5-(3,5-Dichloro-4-fluorophenyl)-5-(trifluoromethyl)-4,5-dihydroisoxazol-3-yl)-N-((1-hydroxy-3,3-dimethyl-1,3-dihydrobenzo[c][1,2]oxaborol-6-yl)methyl)-2-methylbenzamide], the “Geometric mean group live parasite counts” value in series [4] (Table 7, oral capsule 25 mg/kg) stood at 2.5; in series [5] (Table 7, oral capsule 25 mg/kg), 2.8; in series [3] (setting [10]), 0.0; in series [3] (setting [11]), 0.0; in series [3] (setting [12]), 0.3; in series [3] (setting [13]), 0.3. Moreover, the “Geometric mean group live parasite counts” value in series [3] (setting [14]) came to 0.2; in series [3] (setting [15]), 1.1. Moreover, the mortality at 300 µM in series [2] is not below 80%. Moreover, in series [3] (Example 11, oral capsule 25 mg/kg, through Day 21), the efficacy is not below 99%. The “% efficacy” value is recorded as “(100) %” in series [3] (setting [11]); “(98.8) %” in series [3] (setting [12]); “(99.1) %” in series [3] (setting [13]); “(99.0) %” in series [3] (setting [14]); “(95.6) %” in series [3] (setting [15]).
Regarding `Cc1cc(C2=NOC(c3cc(Cl)c(F)c(Cl)c3)(C(F)(F)F)C2)ccc1C(=O)NCc1ccc2c(c1)C(C)(C)OB2O` (stereo not drawn) [Compound 3, 4-(5-(3,5-Dichloro-4-fluorophenyl)-5-(trifluoromethyl)-4,5-dihydroisoxazol-3-yl)-N-((1-hydroxy-3,3-dimethyl-1,3-dihydrobenzo[c][1,2]oxaborol-5-yl)methyl)-2-methylbenzamide], the mortality at 300 µM in series [2] was not below 80%. The “Geometric mean group live parasite counts” value in series [3] (setting [10]) was determined as 0.0; in series [3] (setting [11]), 0.0; in series [3] (setting [12]) it was 1.2; in series [3] (setting [13]) it was 13.3. Also, in series [3] (setting [11]), the “% efficacy” value is reported as “(100) %”.

The mortality is the percentage killed.
